Columns and labels:
Type in all cases: in vivo
[1] = tested on: Italian ryegrass (Lolium multiflorum); assay: Test A preemergence; settings: Lolium multiflorum, pre-emergence, 240 h, 1000 g ai/ha, 0 to 100 scale, read-out: Plant response rating, Ryegrass, Italian
Procedure, shortened: (§1)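 Visual injury scored 0–100 (100 = complete control) against untreated controls about 10 days after treatment in a greenhouse. Test chemicals, formulated with surfactant in non-phytotoxic solvent, were sprayed on soil preemergence or on 2-10 cm, one- to two-leaf plants postemergence.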

[2] = tested on: ragweed (common ragweed, Ambrosia elatior); assay: Test A preemergence; settings: Ambrosia artemisiifolia, pre-emergence, 240 h, 1000 g ai/ha, 0 to 100 scale, read-out: Plant response rating, Ragweed
Procedure, shortened: as §1

kochia (Kochia scoparia) [3] = assay: Test A preemergence; settings: Bassia scoparia, pre-emergence, 240 h, 1000 g ai/ha, 0 to 100 scale, read-out: Plant response rating, Kochia
Procedure, shortened: as §1

[4] = tested on: pigweed (Amaranthus retroflexus); assay: Test A preemergence; settings: Amaranthus retroflexus, pre-emergence, 240 h, 1000 g ai/ha, 0 to 100 scale, read-out: Plant response rating, Pigweed
Procedure, shortened: as §1

[5] = tested on: barnyardgrass (Echinochloa crus-galli); assay: Test A preemergence; settings: Echinochloa crus-galli, pre-emergence, 240 h, 1000 g ai/ha, 0 to 100 scale, read-out: Plant response rating, Barnyardgrass
Procedure, shortened: as §1

[6] = tested on: giant foxtail (Setaria faberii); assay: Test A preemergence; settings: Setaria faberi, pre-emergence, 240 h, 1000 g ai/ha, 0 to 100 scale, read-out: Plant response rating, Foxtail, Giant
Procedure, shortened: as §1

[7] = tested on: Italian ryegrass (Lolium multiflorum); assay: Test A postemergence; settings: Lolium multiflorum, post-emergence, 240 h, 1000 g ai/ha, 0 to 100 scale, read-out: Plant response rating, Ryegrass, Italian
Procedure, shortened: as §1

[8] = tested on: galium (catchweed bedstraw, Galium aparine); assay: Test A postemergence; settings: Galium, post-emergence, 240 h, 1000 g ai/ha, 0 to 100 scale, read-out: Plant response rating, Galium
Procedure, shortened: as §1

[9] = tested on: ragweed (common ragweed, Ambrosia elatior); assay: Test A postemergence; settings: Ambrosia artemisiifolia, post-emergence, 240 h, 1000 g ai/ha, 0 to 100 scale, read-out: Plant response rating, Ragweed
Procedure, shortened: as §1

kochia (Kochia scoparia) [10] = assay: Test A postemergence; settings: Bassia scoparia, post-emergence, 240 h, 1000 g ai/ha, 0 to 100 scale, read-out: Plant response rating, Kochia
Procedure, shortened: as §1

[11] = tested on: blackgrass (Alopecurus myosuroides); assay: Test A postemergence; settings: Alopecurus myosuroides, post-emergence, 240 h, 1000 g ai/ha, 0 to 100 scale, read-out: Plant response rating, Blackgrass
Procedure, shortened: as §1

corn (Zea mays) = assay: Test A postemergence; settings: Zea mays, post-emergence, 240 h, 1000 g ai/ha, 0 to 100 scale
Procedure, shortened: as §1

[12] = tested on: pigweed (Amaranthus retroflexus); assay: Test A postemergence; settings: Amaranthus retroflexus, post-emergence, 240 h, 1000 g ai/ha, 0 to 100 scale, read-out: Plant response rating, Pigweed
Procedure, shortened: as §1

[13] = tested on: barnyardgrass (Echinochloa crus-galli); assay: Test A postemergence; settings: Echinochloa crus-galli, post-emergence, 240 h, 1000 g ai/ha, 0 to 100 scale, 0 no effect, 100 complete control, read-out: Plant response rating, Barnyardgrass
Procedure, shortened: as §1

[14] = tested on: giant foxtail (Setaria faberii); assay: Test A postemergence; settings: Setaria faberi, post-emergence, 240 h, 1000 g ai/ha, 0 to 100 scale, read-out: Plant response rating, Foxtail, Giant
Procedure, shortened: as §1

[15] = tested on: wheat (Triticum aestivum); assay: Test A postemergence; settings: Triticum aestivum, post-emergence, 240 h, 1000 g ai/ha, 0 to 100 scale, read-out: Plant response rating, Wheat
Procedure, shortened: as §1

[16] = tested on: galium (catchweed bedstraw, Galium aparine); assay: Test C preemergence; settings: Galium, pre-emergence, 336 h, preemergence, scale 0 to 100, read-out: Plant response rating, Galium
Procedure, shortened: (§2)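 Visual ratings (0 none to 100 complete control) were made 13 to 15 days after treatment, relative to controls. Test chemicals, formulated in a non-phytotoxic solvent mixture with surfactant, were applied in the greenhouse preemergence to seeded loam-sand soil or postemergence to plants 2 to 18 cm tall.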

[17] = tested on: lambsquarters (Chenopodium album); assay: Test C preemergence; settings: Chenopodium album, pre-emergence, 336 h, preemergence, scale 0 to 100, read-out: Plant response rating, Lambsquarters
Procedure, shortened: as §2

[18] = tested on: yellow nutsedge (Cyperus esculentus); assay: Test C preemergence; settings: Cyperus, pre-emergence, 336 h, preemergence, scale 0 to 100, read-out: Plant response rating, Nutsedge, Yellow
Procedure, shortened: as §2

[19] = tested on: ducksalad (Heteranthera limosa); assay: Test B flooded paddy; settings: Heteranthera limosa, 336 h; 250 g ai/ha, Flood, 13 to 15 days, scale 0 (no effect) to 100 (complete control); read-out: Plant response rating, Ducksalad
Procedure, shortened: (§3)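 Greenhouse pots flooded to 3 cm above soil at time of treatment received compound via the water, which stayed at that level.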

rice (Oryza sativa) = assay: Test B flooded paddy; settings: Oryza sativa, 336 h; 250 g ai/ha, Flood, 13 to 15 days, scale 0 (no effect) to 100 (complete control); read-out: Plant response rating, Rice
Procedure, shortened: as §3

[20] = tested on: sedge, umbrella (small-flower umbrella sedge, Cyperus difformis); assay: Test B flooded paddy; settings: Cyperus difformis, 336 h; 250 g ai/ha, Flood, 13 to 15 days, scale 0 (no effect) to 100 (complete control); read-out: Plant response rating, Sedge, Umbrella
Procedure, shortened: as §3

[21] = tested on: barnyardgrass (Echinochloa crus-galli); assay: Test B flooded paddy; settings: Echinochloa crus-galli, 336 h; 250 g ai/ha, Flood, 13 to 15 days, scale 0 (no effect) to 100 (complete control); read-out: Plant response rating, Barnyardgrass
Procedure, shortened: as §3

Compound: Fc1cnc(Oc2c(Br)cccc2Oc2ncc(Cl)cn2)nc1 [Compound 22]
- pest or weed control at 1000 g/ha [1]: 90%
- pest or weed control at 1000 g/ha [2]: 90%
- pest or weed control at 1000 g/ha (kochia (Kochia scoparia) [3]): 100%
- pest or weed control at 1000 g/ha [4]: 100%
- pest or weed control at 1000 g/ha [5]: 100%
- pest or weed control at 1000 g/ha [6]: 100%
- pest or weed control at 1000 g/ha [7]: 90%
- pest or weed control at 1000 g/ha [8]: 90%
- pest or weed control at 1000 g/ha [9]: 90%
- pest or weed control at 1000 g/ha (kochia (Kochia scoparia) [10]): 100%
- pest or weed control at 1000 g/ha [11]: 70%
- Corn plant response rating (crop injury, 0 = no effect, 100 = complete kill) at 1000 g/ha (corn (Zea mays)): 70%
- pest or weed control at 1000 g/ha [12]: 100%
- pest or weed control at 1000 g/ha [13]: 90%
- pest or weed control at 1000 g/ha [14]: 90%
- plant injury at 1000 g/ha [15]: 70%
- pest or weed control at 31 g/ha ([16]; 31 g ai/ha): 98%
- pest or weed control at 62 g/ha ([16]; 62 g ai/ha): 100%
- pest or weed control at 125 g/ha ([16]; 125 g ai/ha): 100%
- pest or weed control at 31 g/ha ([17]; 31 g ai/ha): 75%
- pest or weed control at 62 g/ha ([17]; 62 g ai/ha): 100%
- pest or weed control at 125 g/ha ([17]; 125 g ai/ha): 100%
- pest or weed control at 31 g/ha ([18]; 31 g ai/ha): 0%
- pest or weed control at 62 g/ha ([18]; 62 g ai/ha): 20%
- pest or weed control at 125 g/ha ([18]; 125 g ai/ha): 60%
- pest or weed control at 250 g/ha [19]: 100%
- plant injury at 250 g/ha (rice (Oryza sativa)): 45%
- pest or weed control at 250 g/ha [20]: 98%
- pest or weed control at 250 g/ha [21]: 45%

From patent publication US20170190671A1, “BIS(ARYL)CATECHOL DERIVATIVES AS HERBICIDES” (E I DU PONT DE NEMOURS AND COMPANY, priority 2014, published 2017)
